Assays:
GSK3α [1] = target: T1, GSK3α (Homo sapiens, UniProt P49840); test: GSK 3α enzyme inhibition (FRET), Method 2; assay type: biochemical; conditions: Table 4a2, different laboratory
IL-8 release, PBMCs = test: LPS-induced IL-8 release in PBMC cells; assay type: cell-based; conditions: Homo sapiens, LPS stimulated, read-out: IC50 Values for Inhibition of Cytokine Release, PBMCs, IL-8
Description: (b) LPS-Induced TNFα/IL-8 Release in PBMC Cells
Peripheral blood mononuclear cells (PBMCs) from healthy subjects are separated from whole blood using a density gradient (Lymphoprep, Axis-Shield Healthcare). The PBMCs are seeded in 96 well plates and treated with compounds at the desired concentration for 2 hours before addition of 1 ng/ml LPS (Escherichia Coli 0111:B4 from Sigma Aldrich) for 24 hours under normal tissue culture conditions (37° C., 5% CO2). The supernatant is harvested for determination of […] concentrations by sandwich ELISA (Duo-set, R&D systems) and read on the fluorescence microplate reader (Varioskan® Flash, ThermoFisher Scientific).

[2] = tested on: TNFα release, d-U937 cells; test: LPS-induced TNFα release in d-U937 cells; assay type: cell-based; conditions: Homo sapiens, dU937; relative to 10 μg/mL BIRB796; Table 4c1; read-out: LPS Induced Release of Cytokine in d-U937 Cells, TNFα REC50
Method in brief: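 Sandwich ELISA quantifies cytokine in supernatants after 4 hr LPS challenge (0.1 μg/mL) of PMA-differentiated (100 ng/mL, 48–72 hr) U937 macrophages given compound 2 hr beforehand. REC50 derived from concentration-response curve, inhibition calculated relative to vehicle.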

PBMC cells = test: Cell mitosis assay; assay type: cell-based; conditions: Homo sapiens, read-out: % Inhibition of mitosis in PBMC cells at 5 μg/mL
Description: PBMCs from healthy subjects are separated from whole blood (Quintiles, London, UK) using a density gradient (Histopaque®-1077, Sigma-Aldrich, Poole, UK). The PBMCs (3 million cells per sample) are subsequently treated with 2% PHA (Sigma-Aldrich, Poole, UK) for 48 hr, followed by a 20 hr exposure to varying concentrations of test compounds. At 2 hr before collection, PBMCs are treated with demecolcine (0.1 μg/mL; Invitrogen, Paisley, UK) to arrest cells in metaphase. […] Fluorescence is observed using an ATTUNE flow cytometer (Invitrogen, Paisley, UK), gating for lymphocytes.

[3] = tested on: ICAM-1 expression, BEAS2B cells; test: Poly I:C-induced ICAM-1 expression in BEAS2B cells; assay type: cell-based; conditions: Homo sapiens, BEAS-2B; read-out: Poly IC induced ICAM1 in BEAS2B, IC50
Method in brief: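 Cell-based ELISA for surface ICAM-1 in human BEAS2B cells 18 h after transfection with the RNA-virus mimic poly I:C (1 μg/mL, with Oligofectamine), compounds added 2 h beforehand. OD450–655 divided by Crystal Violet OD595 per well; percent inhibition relative to vehicle.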

d-U937 cells = test: Cell viability: MTT assay; assay type: cell-based, human; conditions: 1 μg/mL
Method in brief: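 MTT reduction (1 h, DMSO solubilisation, A550) measured after compound treatment at 1 or 10 μg/mL of differentiated U937 cells for 4 h (5% FCS RPMI1640) or 24 h (10% FCS). Percentage viability loss computed relative to 0.5% DMSO vehicle, with increases tabulated as negative values.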

[4] = tested on: IL-8 release, d-U937 cells; test: LPS-induced IL-8 release in d-U937 cells; assay type: cell-based; conditions: Homo sapiens, dU937; Table 4c1; read-out: LPS Induced Release of Cytokine in d-U937 Cells, IL-8 IC50
Method in brief: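 IL-8 release after a 4 hr challenge with LPS (0.1 μg/mL, E. coli 0111:B4) following a 2 hr compound pretreatment. Cells were human U937 monocytes differentiated to macrophage-type with PMA 100 ng/mL for 48–72 hr. Relative 50% effective concentration derived from concentration–response data.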

Syk = Syk (Homo sapiens, UniProt P43405); test: Syk enzyme inhibition (FRET); assay type: biochemical
Method in brief: (§1)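 Kinase activity is measured on a dual-labelled synthetic peptide by FRET. ATP is supplied as an 800 μM solution for c-Src and a 60 μM solution for Syk. Compound is tested at four added concentrations, 4 to 0.004 μg/mL.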

cSrc = cSrc (Homo sapiens, UniProt P12931); test: c-Src enzyme inhibition (FRET); assay type: biochemical
Method in brief: as §1

GSK3α [5] = target: T1, GSK3α; test: GSK 3α enzyme inhibition (FRET), Method 1; assay type: biochemical; conditions: Table 4a1
Method in brief: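 Compounds are tested at added-solution levels of 4, 0.4, 0.04 or 0.004 μg/mL against GSK3α, with a 2 hr RT preincubation. Kinase reaction with FRET peptide and ATP (8 μM and 40 μM as added) runs 1 hr, and phosphorylation is judged by the protease-sensitive FRET ratio.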

[6] = Table 4a2, different laboratory

Chain of cSrc (P12931 whole entry): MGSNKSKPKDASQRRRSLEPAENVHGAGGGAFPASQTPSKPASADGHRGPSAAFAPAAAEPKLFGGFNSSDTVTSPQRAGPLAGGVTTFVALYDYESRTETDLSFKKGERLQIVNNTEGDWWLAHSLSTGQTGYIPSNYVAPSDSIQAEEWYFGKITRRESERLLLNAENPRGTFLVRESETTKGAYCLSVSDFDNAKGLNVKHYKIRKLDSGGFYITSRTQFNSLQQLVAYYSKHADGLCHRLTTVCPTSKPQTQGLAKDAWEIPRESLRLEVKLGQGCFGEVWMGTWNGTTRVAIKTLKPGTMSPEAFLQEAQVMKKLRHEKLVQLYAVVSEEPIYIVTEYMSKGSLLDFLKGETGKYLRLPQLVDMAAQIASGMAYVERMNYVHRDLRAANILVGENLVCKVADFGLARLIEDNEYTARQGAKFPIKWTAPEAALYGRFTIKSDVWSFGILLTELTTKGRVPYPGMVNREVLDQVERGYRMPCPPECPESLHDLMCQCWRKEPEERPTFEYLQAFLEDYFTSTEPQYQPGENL
T1 sequence (P49840 whole entry): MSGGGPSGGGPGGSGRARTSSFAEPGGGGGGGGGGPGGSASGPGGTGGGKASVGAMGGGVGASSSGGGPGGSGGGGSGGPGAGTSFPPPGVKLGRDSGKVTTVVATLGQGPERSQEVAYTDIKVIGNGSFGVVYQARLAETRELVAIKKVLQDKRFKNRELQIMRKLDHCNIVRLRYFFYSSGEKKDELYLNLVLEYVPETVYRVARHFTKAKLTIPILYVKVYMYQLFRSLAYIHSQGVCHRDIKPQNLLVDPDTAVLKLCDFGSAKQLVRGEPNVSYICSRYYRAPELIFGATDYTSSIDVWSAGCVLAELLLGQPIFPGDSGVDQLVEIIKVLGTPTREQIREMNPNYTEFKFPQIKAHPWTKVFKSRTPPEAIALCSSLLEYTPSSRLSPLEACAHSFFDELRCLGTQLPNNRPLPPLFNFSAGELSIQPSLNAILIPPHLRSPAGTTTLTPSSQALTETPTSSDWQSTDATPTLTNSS

SMILES	IC50 (GSK3α [1]) [nM]	IC50 (IL-8 release, PBMCs) [nM]	EC50 [2] [nM]	inhibition at 5 µg/mL (PBMC cells) [%]	IC50 [3] [nM]	Cell viability at time point in d-U937 cells, 4 h (d-U937 cells)	Cell viability at time point in d-U937 cells, 24 h (d-U937 cells)	IC50 [4] [nM]	IC50 (Syk; Table 4a1) [nM]	IC50 (cSrc; Table 4a1) [nM]	IC50 (GSK3α [5]) [nM]	IC50 (Syk; [6]) [nM]	IC50 (cSrc; [6]) [nM]
C#Cc1cc(Nc2nccc(Oc3ccc(NC(=O)Nc4cc(C(C)(C)C)nn4-c4ccc(OC)nc4)c4ccccc34)n2)cc(C(=O)NCCN2CCOCC2)c1 [Example 73, 3-((4-((4-(3-(3-(tert-Butyl)-1-(6-methoxypyridin-3-yl)-1H-pyrazol-5-yl)ureido)naphthalen-1-yl)oxy)pyrimidin-2-yl)amino)-5-ethynyl-N-(2-morpholinoethyl)benzamide]	402	0.5											
COc1ccc(-n2nc(C(C)C)cc2NC(=O)Nc2ccc(Oc3ccnc(Nc4cc(OC)cc(C(=O)NCCO)c4)n3)c3ccccc23)cc1 [Example 65, N-(2-hydroxyethyl)-3-((4-((4-(3-(3-isopropyl-1-(4-methoxyphenyl)-1H-pyrazol-5-yl)ureido)naphthalen-1-yl)oxy)pyrimidin-2-yl)amino)-5-methoxybenzamide]			1.7	36.7	8.3	−ve (−ve and +ve indicate that the value is below and above respectively, the no significant effect threshold, defined as 30% inhibition at 1 μg/mL at the time point indicated)	−ve (−ve and +ve indicate that the value is below and above respectively, the no significant effect threshold, defined as 30% inhibition at 1 μg/mL at the time point indicated)	0.6	61	8	> 14200		
Cc1ccc(-n2nc(C(C)C)cc2NC(=O)Nc2ccc(Oc3ccnc(Nc4cccc(C(=O)NCCN5CCOCC5)c4)n3)c3ccccc23)cc1 [Example 19, 3-((4-((4-(3-(3-isopropyl-1-(p-tolyl)-1H-pyrazol-5-yl)ureido)naphthalen-1-yl)oxy)pyrimidin-2-yl)amino)-N-(2-morpholinoethyl)benzamide]			0.3	25.3		−ve (−ve and +ve indicate that the value is below and above respectively, the no significant effect threshold, defined as 30% inhibition at 1 μg/mL at the time point indicated)	−ve (−ve and +ve indicate that the value is below and above respectively, the no significant effect threshold, defined as 30% inhibition at 1 μg/mL at the time point indicated)	0.2	4		1240		
C#Cc1cc(Nc2nccc(Oc3ccc(NC(=O)Nc4cc(C(F)(F)C(F)(F)F)nn4-c4ccc(C)cc4)c4ccccc34)n2)cc(C(=O)NCCN2CCOCC2)c1 [Example 74, 3-Ethynyl-N-(2-morpholinoethyl)-5-((4-((4-(3-(3-(perfluoroethyl)-1-(p-tolyl)-1H-pyrazol-5-yl)ureido)naphthalen-1-yl)oxy)pyrimidin-2-yl)amino)benzamide]	≥ 12100	4.1											
C#Cc1cc(Nc2nccc(Oc3ccc(NC(=O)Nc4cc(C(C)(C)OC)nn4-c4ccc(C)cc4)c4ccccc34)n2)cc(C(=O)NCCN2CCOCC2)c1 [Example 79, 3-Ethynyl-5-((4-((4-(3-(3-(2-methoxypropan-2-yl)-1-(p-tolyl)-1H-pyrazol-5-yl)ureido)naphthalen-1-yl)oxy)pyrimidin-2-yl)amino)-N-(2-morpholinoethyl)benzamide]	756	1.1											
C#Cc1cc(Nc2nccc(Oc3ccc(NC(=O)Nc4cc(C(C)C)nn4-c4ccc(C)cc4)c(Cl)c3Cl)n2)cc(C(=O)NCCN2CCOCC2)c1 [Example 87, 3-((4-(2,3-Dichloro-4-(3-(3-isopropyl-1-(p-tolyl)-1H-pyrazol-5-yl)ureido)-phenoxy)pyrimidin-2-yl)amino)-5-ethynyl-N-(2-morpholinoethyl)benzamide]	5840	9.4										27	22
COc1cc(C(=O)NCCN2CCOCC2)ccc1Nc1nccc(Oc2ccc(NC(=O)Nc3cc(C(C)C)nn3-c3ccc(C)cc3)c3ccccc23)n1 [Example 36, 4-((4-((4-(3-(3-isopropyl-1-(p-tolyl)-1H-pyrazol-5-yl)ureido)naphthalen-1-yl)oxy)pyrimidin-2-yl)amino)-3-methoxy-N-(2-morpholinoethyl)benzamide]	≥ 13200	30.4	4.7		82.3	−ve (−ve and +ve indicate that the value is below and above respectively, the no significant effect threshold, defined as 30% inhibition at 1 μg/mL at the time point indicated)	−ve (−ve and +ve indicate that the value is below and above respectively, the no significant effect threshold, defined as 30% inhibition at 1 μg/mL at the time point indicated)	46	169	8	> 13200		
C#Cc1cc(Nc2nccc(Oc3ccc(NC(=O)Nc4cc(C(C)C)nn4-c4ccc(C)cc4)c(F)c3F)n2)cc(C(=O)NCCN2CCOCC2)c1 [Example 88, 3-((4-(2,3-Difluoro-4-(3-(3-isopropyl-1-(p-tolyl)-1H-pyrazol-5-yl)ureido)-phenoxy)pyrimidin-2-yl)amino)-5-ethynyl-N-(2-morpholinoethyl)benzamide]	172	13.1											
CCc1cc(NC(=O)Nc2ccc(Oc3ccnc(Nc4cc(OC)cc(C(=O)NCCN5CCOCC5)c4)n3)c3ccccc23)n(-c2ccc(C)cc2)n1 [Example 49, 3-((4-((4-(3-(3-ethyl-1-(p-tolyl)-1H-pyrazol-5-yl)ureido)naphthalen-1-yl)oxy)pyrimidin-2-yl)amino)-5-methoxy-N-(2-morpholinoethyl)benzamide]	≥ 13500	19	9.2		33	−ve (−ve and +ve indicate that the value is below and above respectively, the no significant effect threshold, defined as 30% inhibition at 1 μg/mL at the time point indicated)	−ve (−ve and +ve indicate that the value is below and above respectively, the no significant effect threshold, defined as 30% inhibition at 1 μg/mL at the time point indicated)	17.2	57	1	> 13500		
C#Cc1cc(Nc2nccc(Oc3ccc(NC(=O)Nc4cc(C(C)C)nn4-c4ccc(C)cc4)c(Cl)c3Cl)n2)cc(C(=O)NCCN(C)C)c1 [Example 90, 3-((4-(2,3-Dichloro-4-(3-(3-isopropyl-1-(p-tolyl)-1H-pyrazol-5-yl)ureido)-phenoxy)pyrimidin-2-yl)amino)-N-(2-(dimethylamino)ethyl)-5-ethynylbenzamide]	154	7.8											
C#Cc1cc(Nc2nccc(Oc3ccc(NC(=O)Nc4cc(C(C)C)nn4-c4ccc(C)cc4)c(Cl)c3Cl)n2)cc(C(N)=O)c1 [Example 89, 3-((4-(2,3-Dichloro-4-(3-(3-isopropyl-1-(p-tolyl)-1H-pyrazol-5-yl)ureido)-phenoxy)pyrimidin-2-yl)amino)-5-ethynylbenzamide]	≥ 15300	14.6											

Reference: patent publication US20140057915A1, “KINASE INHIBITORS” (TOPIVERT PHARMA LIMITED, priority 2012, published 2014)
